The text below walks through data of patent US11845763B2, “Tricarbonyl complexes of transition metals with benzo-heterocyclic derivatives of the cyclopentadienyl anion” (National Centre For Scientific Research “Demokritos”, priority 2018, dated 2023).

For orientation: Ki means a dissociation constant, usually derived from enzyme kinetics or from competition with a known ligand.

Structures are written as SMILES. Like-named read-outs stand apart in the source and are kept apart here.

The conditions of data set [1]: cited from earlier work.
Data set [2] can be described thus: Brain uptake of literature 99mTc agents (cited). The format is in vivo. The settings on record: 2 min post administration, converted from % ID/organ.
Data set [3] addresses Aβ aggregates. Conditions: literature value [45]; read-out: binding affinity to Aβ aggregates (Ki); cited from earlier work.
Data set [4] can be described thus: Blood-brain barrier permeability by biodistribution studies in mice. The settings on record: for Biodistribution of radioactivity, Blood / Biodistribution of radioactivity, Brain / Biodistribution of radioactivity, Heart / Biodistribution of radioactivity, Intestines / Biodistribution of radioactivity, Kidneys / Biodistribution of radioactivity, Liver / Biodistribution of radioactivity, Lungs / Biodistribution of radioactivity, Muscle / Biodistribution of radioactivity, Pancreas / Biodistribution of radioactivity, Spleen / Biodistribution of radioactivity, Stomach: tail vein injection, healthy Swiss Albino mice; for percentage of radioactivity in the brain: 2 min, Swiss Albino mice. The format is in vivo, Swiss Albino mice. How it is done:
This evaluation was conducted through biodistribution studies in healthy Swiss Albino mice (5 weeks old, 20-30 g) that were obtained from the breeding facilities of the Institute of Biosciences & Applications, NCSR “Demokritos”. During these experiments we evaluate the distribution of radioactivity in the tissues of the animal after radiolabeled compound administration. For the credibility of the in vivo distribution data, three independent experiments are required for each evaluation, where in each experiment the animal population ranges between 9 and 12. The experiments of synthesis, labelling and biodistribution were carried out in the Laboratory of “Radiopharmaceuticals”, NCSR “Demokritos” that has the required infrastructure to ensure safe conduct of experiments using radioactivity. All the biodistribution studies were carried out in compliance with the Presidential Decree 56/2013 (published in the Official Government Gazette of Greece 106 A/30-4-2013) that has transposed the EU Directive 2010/63 on the protection of animals used for scientific purposes.
Three groups of mice (three animals per group) were injected in the tail vein with HPLC-purified ^99mTc complexes (1-2 μCi in 0.1 mL, ethanol/saline 1:9). The mice were sacrificed at various time points (2, 15, 90 min) post injection (p.i.). The organs of interest were excised, weighed, and the radioactivity counted in an automatic γ-counter. The stomach and intestines were not emptied of food contents prior to radioactivity measurements. The calculation for blood and muscle was based upon measured activity, sample weight, and body composition data, considering that blood comprises 7% and muscle 43% of body weight. The percentage of injected dose per organ (% ID/organ) was calculated by comparison of sample radioactivity to standard solutions that contained 10% of the injected dose. The percentage of injected dose per gram (% ID/g) was calculated by dividing the % ID/organ by the weight of the organ or tissue.
where cpm reference=(cpm 10% standard×10)−cpm tail.

Data set [5] is described as follows: Stability of 99mTc complexes under excess histidine or cysteine (HPLC). The format is physicochemical. Conditions: percentage of intact complex by HPLC, PBS pH 7.4, 37° C.; for Stability, Cysteine, 1 h / Stability, Cysteine, 3 h / Stability, Cysteine, 6 h: excess cysteine; for Stability, Histidine, 1 h / Stability, Histidine, 3 h / Stability, Histidine, 6 h: excess histidine. How it is done: The stability of ^99mTc-2-^99mTc-4 complexes was assessed in the presence of excess histidine and cysteine which are capable of acting as tridentate substituents replacing the ligands of the complexes. Each of the HPLC-purified ^99mTc complex (0.5 mL, approx. 10 MBq) was mixed with a solution of histidine or cysteine (2 mM) in 0.1 M PBS, pH 7.4 (0.5 mL). The mixture was incubated at 37° C. and analyzed by HPLC after 1, 3, and 6 h. The recording of the percentage of the intact complexes in the presence of the antagonists at each time point of the study allows the estimation of the stability of the labeled ^99mTc complexes.

Data set [6] addresses Aβ42 fibrillar aggregates (Homo sapiens, UniProt P05067). Kind of data set: Competitive binding assay using Aβ42 fibrillar aggregates. Conditions: homologous competition, Re complex vs corresponding 99mTc complex, 50 nM Aβ42 fibrillar aggregates, 3 h room temperature. As for the experimental part:
Competitive binding assay studies were performed in 1 mL solutions in PBS in 12 mm×75 mm borosilicate glass tubes according to a published procedure with modifications. […] The solutions were incubated for 3 h at room temperature and the bound and free radioactivity were separated by Millex-GV Syringe Filter Unit, 0.22 μm filters followed by 2×2 mL washes with PBS at room temperature. Filters containing the bound ^99mTc complexes were measured for radioactivity in a γ-counter. Binding studies were repeated in triplicate. The data were analyzed using GraphPad Prism software with the IC50 value calculated using a one-site competitive binding […] regression. The Ki value was calculated using the Cheng-Prousoff equation [44]: […]
In the case of homologous competitive binding we assume that the hot and cold ligand have identical affinities so that Kd and Ki have the same value. Thus the above equation is being transformed into: Ki=IC50−[Radioligand]

Data set [7] in a line: Lipophilicity, partition coefficient n-octanol/PBS. It counts as physicochemical. As for the experimental part: The lipophilicity of ^99mTc-2-^99mTc-4 complexes was determined by the estimation of the partition coefficient in a biphasic system of n-octanol and water (PBS). The partition coefficient was expressed as the logarithm of the ratio of the counts per gram from n-octanol versus those from PBS (log Poct/water), where P is the ratio. The measurement was done in triplicate and repeated three times.

Sequence of Aβ42 fibrillar aggregates (P05067 672-713 limits assumed): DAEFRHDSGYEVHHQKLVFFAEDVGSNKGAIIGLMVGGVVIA

`CCOC(=O)[C@H](C[S-])[N-]CCN[C@@H](C[S-])C(=O)OCC.[O-2].[Tc]` [^99mTc-ECD, 99mTc-labelled ethylene dicysteine diethyl ester]: the brain penetration is recorded as 1.32 % ID/organ in data set [1] (2 min post administration [40]) and “approximately 4.4 % ID/gr” in data set [2].
For `CN(C)c1ccc(-c2cn3cc(I)ccc3n2)cc1` [[^123I]IMPY], the Ki in data set [3] was 12.5 ± 2.8 nM.
As to `[99Tc+].[C-]#[O+].[C-]#[O+].[C-]#[O+].c1ccc2[nH]c(-[c-]3cccc3)nc2c1` [^99mTc-3], in data set [4] (2 min p.i.), the “Biodistribution of radioactivity, Blood” value is recorded as 3.38 ± 0.67 % ID/gr; the “Biodistribution of radioactivity, Brain” value was 3.99 ± 0.60 % ID/gr; the “Biodistribution of radioactivity, Heart” value amounted to 7.53 ± 1.28 % ID/gr; the “Biodistribution of radioactivity, Intestines” value (“Biodistribution … Intestines” below) is 3.06 ± 0.08 % ID/gr. In addition, in data set [4] (2 min p.i.), the “Biodistribution of radioactivity, Kidneys” value (“Biodistribution … Kidneys” below) came out at 9.70 ± 0.92 % ID/gr; the “Biodistribution of radioactivity, Liver” value is on record as 13.97 ± 2.13 % ID/gr; the “Biodistribution of radioactivity, Lungs” value is 7.09 ± 0.38 % ID/gr; the “Biodistribution of radioactivity, Muscle” value came to 5.23 ± 0.79 % ID/gr. In data set [4] (2 min p.i.), the “Biodistribution of radioactivity, Pancreas” value (“Biodistribution … Pancreas” for short) is recorded as 5.99 ± 0.62 % ID/gr; the “Biodistribution of radioactivity, Spleen” value is given as 2.63 ± 0.40 % ID/gr; the “Biodistribution of radioactivity, Stomach” value (shortened to “Biodistribution … Stomach”) was determined as 1.63 ± 0.44 % ID/gr. Moreover, in data set [4] (15 min p.i.), the “Biodistribution of radioactivity, Blood” value was 1.86 ± 0.13 % ID/gr; the “Biodistribution of radioactivity, Brain” value was 0.75 ± 0.11 % ID/gr; the “Biodistribution of radioactivity, Heart” value is given as 1.95 ± 0.26 % ID/gr; the “Biodistribution … Intestines” value was 14.80 ± 0.25 % ID/gr. Besides, in data set [4] (15 min p.i.), the “Biodistribution … Kidneys” value is recorded as 5.04 ± 0.53 % ID/gr; the “Biodistribution of radioactivity, Liver” value is recorded as 30.66 ± 3.96 % ID/gr; the “Biodistribution of radioactivity, Lungs” value was 2.44 ± 0.39 % ID/gr; the “Biodistribution of radioactivity, Muscle” value is recorded as 1.50 ± 0.19 % ID/gr. Also, in data set [4] (15 min p.i.), the “Biodistribution … Pancreas” value came out at 1.96 ± 0.25 % ID/gr; the “Biodistribution of radioactivity, Spleen” value is 1.01 ± 0.09 % ID/gr; the “Biodistribution … Stomach” value worked out at 3.17 ± 0.43 % ID/gr. In addition, in data set [4] (90 min p.i.), the “Biodistribution of radioactivity, Blood” value was 0.48 ± 0.12 % ID/gr; the “Biodistribution of radioactivity, Brain” value is given as 0.04 ± 0.01 % ID/gr; the “Biodistribution of radioactivity, Heart” value is recorded as 0.22 ± 0.05 % ID/gr; the “Biodistribution … Intestines” value is on record as 23.94 ± 4.27 % ID/gr. Besides, in data set [4] (90 min p.i.), the “Biodistribution … Kidneys” value turned out to be 1.57 ± 0.20 % ID/gr; the “Biodistribution of radioactivity, Liver” value is reported as 18.08 ± 1.34 % ID/gr; the “Biodistribution of radioactivity, Lungs” value turned out to be 0.45 ± 0.13 % ID/gr; the “Biodistribution of radioactivity, Muscle” value is 0.15 ± 0.03 % ID/gr. For the same molecule, in data set [4] (90 min p.i.), the “Biodistribution … Pancreas” value was determined as 0.21 ± 0.02 % ID/gr; the “Biodistribution of radioactivity, Spleen” value came out at 0.17 ± 0.03 % ID/gr; the “Biodistribution … Stomach” value came to 4.63 ± 0.56 % ID/gr. In addition, in data set [4], the “percentage of radioactivity in the brain” value is given as 3.99±0.60 % ID/g. Also, in data set [5], the “Stability, Cysteine, 1 h” value is reported as 98 ± 1; the “Stability, Cysteine, 3 h” value was 98 ± 1; the “Stability, Cysteine, 6 h” value was 97 ± 2; the “Stability, Histidine, 1 h” value amounted to 98 ± 1. Besides, in data set [5], the “Stability, Histidine, 3 h” value is listed as 98 ± 1 and the “Stability, Histidine, 6 h” value is recorded as 97 ± 1. In addition, the Ki in data set [6] was 7.04 ± 2.85 nM. The “Lipophilicity logPoct/water” value in data set [7] turned out to be 1.84 ± 0.17.
Take `Cn1c(-[c-]2cccc2)nc2ccccc21.[99Tc+].[C-]#[O+].[C-]#[O+].[C-]#[O+]` [^99mTc-4]: the “percentage of radioactivity in the brain” value in data set [4] is listed as 6.14±1.00 % ID/g. Further, in data set [5], the “Stability, Cysteine, 1 h” value was determined as 98 ± 1; the “Stability, Cysteine, 3 h” value is given as 95 ± 2; the “Stability, Cysteine, 6 h” value was 85 ± 1; the “Stability, Histidine, 1 h” value was determined as 98 ± 1. Further, in data set [5], the “Stability, Histidine, 3 h” value came out at 96 ± 1 and the “Stability, Histidine, 6 h” value is recorded as 95 ± 1. This molecule also displayed a Ki in data set [6] of 5.74 ± 2.9 nM. Moreover, the “Lipophilicity logPoct/water” value in data set [7] is listed as 1.50 ± 0.12.
For the molecule `C/C(=N\[O-])[C@@H](C)[N-]CC(C)(C)C[N-][C@H](C)/C(C)=N/O.[O]=[99Tc+3]` (racemic) [^99mTc-HMPAO, 99mTc-hexamethylpropyleneamineoxime], in data set [1] (60 min post administration [39]), the brain penetration is 5 % ID/gr.
